Data: patent US7507860B2 (Pfizer Inc., priority 2004, dated 2009)
Numbering of substitutions follows the chain as printed.

How the values were obtained:
[1] = target: T1, androgen receptor (Homo sapiens, UniProt P10275); test: AR antagonist cell assay (MDA-MB453-MMTV clone 54-19 luciferase reporter, 100 pM DHT); assay type: cell-based; conditions: MDA-MB453-MMTV clone 54-19, inhibition of 100 pM DHT induction, 17 hr; mean of multiple tests; read-out: AR Cell IC50
T1 sequence (P10275 1-920 Q868H): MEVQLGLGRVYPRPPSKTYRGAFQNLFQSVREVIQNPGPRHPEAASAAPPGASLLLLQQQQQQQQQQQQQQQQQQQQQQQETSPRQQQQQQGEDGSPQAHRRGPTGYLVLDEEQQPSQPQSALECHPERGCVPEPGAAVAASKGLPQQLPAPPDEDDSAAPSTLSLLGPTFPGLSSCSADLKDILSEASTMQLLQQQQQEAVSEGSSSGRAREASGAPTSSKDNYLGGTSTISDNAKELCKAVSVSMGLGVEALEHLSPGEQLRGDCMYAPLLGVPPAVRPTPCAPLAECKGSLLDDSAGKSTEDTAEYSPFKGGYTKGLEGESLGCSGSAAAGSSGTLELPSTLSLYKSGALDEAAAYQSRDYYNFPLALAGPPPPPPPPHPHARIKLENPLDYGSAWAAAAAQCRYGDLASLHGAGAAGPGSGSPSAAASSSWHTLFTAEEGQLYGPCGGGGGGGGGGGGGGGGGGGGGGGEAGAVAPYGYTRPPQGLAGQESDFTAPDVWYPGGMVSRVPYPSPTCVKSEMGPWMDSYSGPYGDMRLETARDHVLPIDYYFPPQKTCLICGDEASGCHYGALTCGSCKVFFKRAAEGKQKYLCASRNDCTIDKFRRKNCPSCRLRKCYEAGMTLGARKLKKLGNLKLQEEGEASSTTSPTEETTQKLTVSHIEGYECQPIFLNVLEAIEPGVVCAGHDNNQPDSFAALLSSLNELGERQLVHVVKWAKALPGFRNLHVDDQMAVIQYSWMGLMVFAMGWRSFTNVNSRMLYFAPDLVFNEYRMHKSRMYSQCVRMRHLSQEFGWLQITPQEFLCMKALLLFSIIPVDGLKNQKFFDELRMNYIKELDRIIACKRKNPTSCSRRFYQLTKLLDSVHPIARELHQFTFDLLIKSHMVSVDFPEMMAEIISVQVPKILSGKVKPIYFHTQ
Method in brief: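 MDA-MB453 cells stably carrying an MMTV-ARE firefly luciferase reporter were plated overnight at 10,000/well in phenol-red-free, charcoal-stripped serum medium. Cells were stimulated with 100 pM DHT (final) for 17 hr at 37 °C, and AR antagonism was read as luciferase signal; values are means of multiple tests.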

[2] = target: T2, human androgen receptor (hAR) (Homo sapiens, UniProt P10275); test: Competitive binding analysis on baculovirus/Sf9 generated hAR extracts with 3H-DHT tracer; conditions: hAR extract, 1 nM 3H-DHT, one hour at 4° C; mean of multiple tests; read-out: AR Binding IC50
T2 construct: made in house; host or cells: baculovirus/Sf9 insect cells (crude extract)
T2 sequence (P10275 1-920): T1 sequence (P10275 1-920 Q868H) with H868Q
Method in brief: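 Baculovirus/Sf9-expressed hAR extract incubated with hydroxylapatite, 1 nM 3H-DHT and decreasing compound concentrations for 1 h at 4 °C, then washed three times to remove unbound tracer. Bound 3H-DHT compared with no-competitor maximum; affinity given as concentration inhibiting half of maximum binding, mean of multiple tests.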

## CC(C)CC(Oc1ccc(C#N)c(C(F)(F)F)c1)C(=O)NCCc1ccc(O)cc1 (centres unmarked) [Example 61, 2-(4-Cyano-3-trifluoromethyl-phenoxy)-4-methyl-pentanoic acid-[2-(4-hydroxyphenyl)-ethyl]-amide]
[1]
  IC50: 341 nM
[2]
  IC50: 86 nM
